# Reference: PubChem BioAssay (NCI)
# “And” between values parts separate entries of the source, which are not always exact repeats. Equal entries are not always repeated.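 Each compound was tested at five concentrations against cells in 96-well plates for 48 hours. GI50: concentration for 50% inhibition of growth. Definition used: TGI = concentration required for complete inhibition of growth.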
# Legend:
# Experiment in all cases: NCI-60 cell line screen, 48 h
# MDA-MB-231 breast = tested on: MDA-MB-231 breast
# HCC-2998 colon = tested on: HCC-2998 colon
# UO-31 renal = tested on: UO-31 renal
# SNB-75 CNS = tested on: SNB-75 CNS
# BT-549 breast = tested on: BT-549 breast
# SF-539 CNS = tested on: SF-539 CNS
# SK-OV-3 ovarian = tested on: SK-OV-3 ovarian
# TK-10 renal = tested on: TK-10 renal
# SN12C renal = tested on: SN12C renal
# KM12 colon = tested on: KM12 colon
SMILES,GI50 (MDA-MB-231 breast) [µM],TGI (MDA-MB-231 breast) [µM],GI50 (HCC-2998 colon) [µM],TGI (HCC-2998 colon),GI50 (UO-31 renal),TGI (UO-31 renal),GI50 (SNB-75 CNS) [µM],TGI (SNB-75 CNS),GI50 (BT-549 breast) [µM],TGI (BT-549 breast) [µM],TGI (SF-539 CNS) [µM],GI50 (SK-OV-3 ovarian) [µM],TGI (SK-OV-3 ovarian),GI50 (TK-10 renal) [µM],TGI (TK-10 renal) [µM],GI50 (SN12C renal) [µM],TGI (SN12C renal),GI50 (KM12 colon) [µM],TGI (KM12 colon),GI50 (SF-539 CNS) [µM]
CCCCc1oc2ccccc2c1C(=O)c1cc(I)c(OCCN(CC)CC)c(I)c1,2,5.18,1.69,3.23 µM and 7.89 µM,2.54 µM and 7.07 µM,13.2 µM and 28.4 µM,1.92,10.9 µM and 22.9 µM,3.26,9.38,10.5,2.69,6.41 µM and 20.1 µM,5.12,17.8,3.08,14.8 µM and 27.9 µM,1.84,3.61 µM and 12.3 µM,
NC(N)=N/N=C(/c1ccccc1)c1ccc(O)cc1O,,> 100,,32 µM,,> 100 µM,,> 100 µM,,> 100,39,,> 100 µM,,> 100,,91 µM,,> 100 µM,
CC(C)(C)n1cc(-c2ccnc(NCCCNS(=O)(=O)c3ccc(Cl)cc3)c2)c(-c2cccc(O)c2)n1,1.87,3.87,1.76,3.24 µM,1.89 µM,5.02 µM,1.37,3.03 µM,1.67,3.16,3.14,2.35,6.08 µM,2.38,5.93,1.65,3.1 µM,2.08,4.44 µM,1.65
Nc1n[n+]([O-])c2cnccc2[n+]1[O-],,> 100,,> 100 µM,,> 100 µM,,> 100 µM,,> 100,> 100,,> 100 µM,,> 100,,> 100 µM,,> 100 µM,
COc1cccc2cc(N(C)c3nc(C)nc4ccsc34)ccc12,< 0.01,15,< 0.01,8.01 µM,< 0.01 µM,12.5 µM,< 0.01,5.3 µM,< 0.01,1.3,< 0.01,< 0.01,35.8 µM,1.87,24.1,< 0.01,15 µM,< 0.01,11.4 µM,< 0.01
COc1cc(C(=O)/C=C/c2c(-c3cccs3)nc3ccccn23)cc(OC)c1OC,3.08,26.2,1.96,3.37 µM,1.07 µM,3.17 µM,2.68,10.2 µM,1.86,5.55,4.5,3.01,8.35 µM,3.78,25.4,2.44,27 µM,1.32,2.79 µM,1.87
NCCCn1c2c(c3ccc([N+](=O)[O-])cc3c1=O)C(=O)c1cc(Cl)ccc1-2,0.218,0.64,< 0.0138,0.119 µM,< 0.01 µM,0.122 µM,< 0.01,1.2 µM,0.0635,1.4,0.0613,< 0.01,0.197 µM,0.379,0.811,< 0.01,0.146 µM,< 0.0283,0.174 µM,< 0.01
Cc1[nH]ccc2cc3nc4ccccc4c3cc12,2,8.24,2.85,13.3 µM,2.02 µM,8.47 µM,5.52,18.9 µM,2.74,13.3,12.6,5.42,18.1 µM,4.47,12.9,2.55,12.5 µM,2.45,11.8 µM,3.07
CSc1ccc(C(=O)/C=C/c2ccc(F)cc2)cc1,74.6,> 100,41.8,> 100 µM,> 100 µM,> 100 µM,7.05,> 100 µM,40,> 100,> 100,> 100,> 100 µM,85.3,> 100,> 100,> 100 µM,70.9,> 100 µM,49.6
CN(C)CCN1C(=O)c2cccc3c(-c4ccc5ncn(C6CCCCC6)c5c4)ccc(c23)C1=O,2.18,9.78,1.82,4.3 µM,1.06 µM,2.4 µM,1.78,10.8 µM,3.95,16.2,9.03,2.59,8.64 µM,2.14,12.6,1.03,12.1 µM,2.24,13.2 µM,2.19
C[C@@H]1CCC2[C@@H](C)[C@H](OC(=O)CCC(=O)NCCNC(=O)Cc3cc(=O)oc4cc(N(C)C)ccc34)O[C@@H]3O[C@]4(C)CC[C@@H]1C23OO4 (stereo partly specified),22.6,> 100,6.85,> 100 µM,0.897 µM,4.15 µM,8.22,29.2 µM,3.07,> 100,24.3,29,> 100 µM,3.24,18.6,4.04,> 100 µM,0.432,16.3 µM,3.22
C=C1C(=O)O[C@H]2[C@H]1CC/C(COC(=O)NCc1cccc(OC)c1)=C\CC[C@@]1(C)O[C@@H]21,1.95,4.22,15.3,31.1 µM,1.58 µM,2.94 µM,12.2,24.7 µM,1.51,3.21,2.98,14.9,28.2 µM,1.85,3.87,1.77,4.4 µM,9.98,25.3 µM,1.55
Clc1ccc2c(NCCN3CCN(c4ccnc(N5CCCC5)n4)CC3)ccnc2c1,2.06,5.89,1.94,4.08 µM,1.82 µM,4.47 µM,1.76,7.62 µM,5.63,19.4,3.67,11.8,34.2 µM,3.9,21.3,4.86,19.1 µM,4.02,17.4 µM,1.73
COc1ccc(-c2cc3nccn3c(Nc3ncccc3C(N)=O)n2)cc1OC,> 100,> 100,> 100,> 100 µM,0.758 µM,42.1 µM,1.04,> 100 µM,0.886,> 100,> 100,> 100,> 100 µM,0.391,> 29.8,1.05,> 100 µM,2.62,27.3 µM,5.86
CCOC(CN(C)C(=O)OCC(Cl)(Cl)Cl)OCC,,> 100,,> 100 µM,,> 100 µM,,> 100 µM,,> 100,> 100,,> 100 µM,,> 100,,> 100 µM,,> 100 µM,
COc1cc2c(cc1-c1c(C)noc1C)ncc1[nH]c(=O)n([C@H](C)c3ccccn3)c12,0.528,> 100,2.5,17.8 µM,0.119 µM,> 57.6 µM,< 0.0379,> 43.7 µM,13.1,> 100,> 100,0.6,> 50.1 µM,0.257,22,4.48,> 100 µM,3.01,> 100 µM,0.677
c1ccc([P+](CCC[P+](c2ccccc2)(c2ccccc2)c2ccccc2)(c2ccccc2)c2ccccc2)cc1,23,> 100,,> 100 µM,,> 100 µM,4.56,86 µM and 67.6 µM,7.44,> 100,> 100,69.1,> 100 µM,,> 100,19.6,> 100 µM,3.86,> 100 µM,15.1
C#CCOc1cccc(Nc2ncnc3c2ncn3C2CCN(C(=O)CCl)C2)c1 (stereo unspecified),18.6,35.9,18.2,37.3 µM,15.2 µM,29.6 µM,34.1,> 100 µM,12.1,26.6,32.4,> 100,> 100 µM,17.1,31.7,15.4,35.5 µM,23.4,58.2 µM,17.7
OCCCCC#Cc1ccccc1C#Cc1cccs1,10.6,23.3,18.3,33.7 µM,16.9 µM,30.6 µM,11.8,24.8 µM,12.4,25.4,25.9,15.5,30.6 µM,25.3,52.9,16.3,31.7 µM,16.6,48 µM,12.9
CC(C)c1ccc(O)c(O)c(=O)c1 (tested in a mixture with another compound),,26.7,,4.04 µM,,> 41.2 µM,,22.8 µM,,98.9,> 21.1,,> 100 µM,,9.6,,> 100 µM,,> 82.1 µM,
